The values below come from patent EP1144369B1 (Wyeth Holdings Corporation, priority 1999, dated 2000).

One assay deals with T1, MMP-1 (Homo sapiens, UniProt P03956).
T1 sequence (P03956 100-469): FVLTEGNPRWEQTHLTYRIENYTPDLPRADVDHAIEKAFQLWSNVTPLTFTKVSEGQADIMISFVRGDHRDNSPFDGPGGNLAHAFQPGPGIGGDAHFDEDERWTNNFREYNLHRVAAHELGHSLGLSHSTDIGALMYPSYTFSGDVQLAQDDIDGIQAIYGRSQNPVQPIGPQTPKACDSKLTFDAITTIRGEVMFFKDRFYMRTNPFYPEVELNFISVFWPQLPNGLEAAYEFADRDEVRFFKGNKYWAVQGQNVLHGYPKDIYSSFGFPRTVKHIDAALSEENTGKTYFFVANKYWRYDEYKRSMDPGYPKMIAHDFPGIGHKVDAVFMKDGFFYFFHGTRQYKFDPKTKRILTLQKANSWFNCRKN
The assay can be described thus: MMP-1 inhibition (thiopeptide or fluorescent peptide substrate). Format: biochemical. The conditions noted are these: for IC50: plain number = IC50; for inhibition at 10 µM: read-out: IC50 (nM) or % Inhibition (µM) MMP-1. As for the experimental part: (§1) The enzyme activity is measured by the rate of the color increase. The thiopeptide substrate is made up fresh as a 20 mM stock in 100% DMSO and the DTNB is dissolved in 100% DMSO as a 100 mM stock and stored in the dark at room temperature. Both the substrate and DTNB are diluted together to 1 mM with substrate buffer (50 mM HEPES pH 7.5, 5 mM CaCl2) before use. The stock of enzyme is diluted with buffer (50 mM HEPES, pH 7.5, 5 mM CaCl2, 0.02% Brij) to the desired final concentration.
(§2) Alternatively, a fluorescent peptide substrate is used. In this test procedure, the peptide substrate contains a fluorescent group and a quenching group. Upon cleavage of the substrate by an MMP, the fluorescence that is generated is quantitated on the fluorescence plate reader. The assay is run in HCBC assay buffer (50mM HEPES, pH 7.0, 5 mM Ca^+2, 0.02% Brij, 0.5% Cysteine), with human recombinant MMP-1, MMP-9, or MMP-13. The substrate is dissolved in methanol and stored frozen in 1 mM aliquots. For the assay, substrate and enzymes are diluted in HCBC buffer to the desired concentrations. Compounds are added to the 96 well plate containing enzyme and the reaction is started by the addition of substrate.
(§3) For either the thiopeptide or fluorescent peptide test procedures, the slope of the line is calculated and represents the reaction rate. The linearity of the reaction rate is confirmed (r^2 >0.85). The mean (x±sem) of the control rate is calculated and compared for statistical significance (p<0.05) with drug-treated rates using Dunnett's multiple comparison test.

Another assay addresses MMP-9 (Homo sapiens, UniProt P14780). As to the kind of experiment: MMP-9 inhibition (thiopeptide or fluorescent peptide substrate). Format: biochemical. The protocol: as §1, §2, §3
A further assay concerns the target MMP-13 (Homo sapiens, UniProt P45452). The assay can be described thus: MMP-13 inhibition (thiopeptide or fluorescent peptide substrate). Format: biochemical. The protocol: as §1, §2, §3
For assay [1], the target named is TNF-α converting enzyme (TACE) (Homo sapiens, UniProt P78536). The assay can be described thus: TACE inhibition (fluorescent peptidyl substrate). Format: biochemical. The conditions noted are these: read-out: IC50 (nM) or % Inhibition (µM) TACE. The protocol: Using 96-well black microtiter plates, each well receives a solution composed of 10 µL TACE (final concentration 1µg/mL), 70µL Tris buffer, pH 7.4 containing 10% glycerol (final concentration 10 mM), and 10 µL of test compound solution in DMSO (final concentration 1µM, DMSO concentration <1%) and incubated for 10 minutes at room temperature. The reaction is initiated by addition of a fluorescent peptidyl substrate (final concentration 100 µM) to each well and then shaking on a shaker for 5 sec.
Sequence of TNF-α converting enzyme (TACE) (P78536 215-824, species assumed): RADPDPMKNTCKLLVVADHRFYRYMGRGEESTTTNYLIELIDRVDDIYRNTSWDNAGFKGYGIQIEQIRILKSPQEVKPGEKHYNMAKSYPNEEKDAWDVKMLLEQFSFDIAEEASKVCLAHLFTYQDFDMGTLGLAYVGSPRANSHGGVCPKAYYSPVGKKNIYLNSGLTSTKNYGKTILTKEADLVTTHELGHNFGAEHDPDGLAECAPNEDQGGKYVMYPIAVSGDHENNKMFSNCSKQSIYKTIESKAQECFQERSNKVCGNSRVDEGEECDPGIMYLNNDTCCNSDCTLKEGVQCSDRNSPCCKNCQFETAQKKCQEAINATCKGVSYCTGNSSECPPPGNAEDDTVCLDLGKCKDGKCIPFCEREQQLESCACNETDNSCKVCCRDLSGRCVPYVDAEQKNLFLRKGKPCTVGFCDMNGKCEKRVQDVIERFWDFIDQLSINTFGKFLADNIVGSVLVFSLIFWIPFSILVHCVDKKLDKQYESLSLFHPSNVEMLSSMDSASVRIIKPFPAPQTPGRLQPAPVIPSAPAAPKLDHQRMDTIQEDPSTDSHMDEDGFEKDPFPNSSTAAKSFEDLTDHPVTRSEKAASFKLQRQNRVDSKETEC
The reaction is read (excitation 340 nm, emission 420 nm) for 10 min. and the increase in fluorescence over time is plotted as a linear line. The slope of the line is calculated and represents the reaction rate.
The linearity of the reaction rate is confirmed (r^2 >0.85). The mean (x±sem) of the control rate is calculated and compared for statistical significance (p<0.05) with drug-treated rates using Dunnett's multiple comparison test.

The test system of a further assay is THP-1 cells. As to the kind of experiment: THP-1 soluble protein assay (LPS-stimulated human monocytic THP-1 cells). Format: cell-based. Conditions: Homo sapiens, LPS-stimulated THP-1 cells, read-out: % Inhib. @ 3µM THP. An excerpt: Mitogenic stimulation of THP-1 cells cause differentiation into macrophage like cells with concomitant secretion of tumor necrosis factor (TNF-a) and TNF receptor (TNF-R p75/80 and TNF-R p55/60) and Interleukin-8 (IL-8), among other proteins. In addition, non-stimulated THP-1 cells shed both the p75/80 and the p55/60 receptors over time. The release of membrane bound TNF-α and possibly TNF-R p75/80 and TNF-R p55/60, but not IL-8, is mediated by an enzyme called TNF-a converting enzyme or TACE.
THP-1 cells (from ATCC) are a human monocytic cell line which were obtained from the peripheral blood of a person with acute monocytic leukemia. They can be grown in culture and differentiated into macrophage like cells by stimulation with mitogens.
Each vial of cells are cultured for about two weeks prior to being used for an assay and then are used for only 4 to 6 weeks to screen compounds.
Cell exposure to DMSO was limited to 0.1 % final concentration. […] Compounds can be evaluated for their effect on basal (non-stimulated) shedding of the receptors by replacing the LPS with […] of THP-1 media. Plates are placed into an incubator set at 5% CO2 and at 37°C. After 4 hours of incubation, […] of tissue culture supernatant (TCS) is removed for use in an TNF-a ELISA. Following 24 hours of incubation, […] of TCS is removed and used for analysis in TNF-R p75/80, TNF-R p55/60 and IL-8 ELISAs.
In addition, at the 24 hours timepoint, and the cells for each treatment group are collected by resuspension in 500 µl/well of THP-1 media and transferred into a FACS tube. […] The samples are run on a Becton Dickinson FaxCaliber FLOW cytometry machine and the amount of dye taken up by each cell is measured in the high red wavelength (FL3). Only cells with compromised membranes (dead or dying) can take up PI. The percent of live cells is calculated by the number of cells not stained with PI, divided by the total number of cells in the sample. The viability values calculated for the drug treated groups were compared to the viability value calculated for the vehicle treated mitogen stimulated group ("vehicle positive control") to determine the "percent change from control". This "percent change from control" value is an indicator of drug toxicity.
The quantity of soluble TNF-a, TNF-R p75/80 and TNF-R p55/60 and IL-8 in the TCS of the THP-1 cell cultures are obtained with commercially available ELISAs from R&D Systems, by extrapolation from a standard curve generated with kit standards. The number of cells that either take up or exclude PI are measured by the FLOW cytometry machine and visualized by histograms using commercially available Cytologic software for each treatment group including all controls.
Biological variability in the magnitude of the response of THP-1 cell cultures requires that experiments be compared on the basis of percent change from "vehicle positive control" for each drug concentration. Percent change in each soluble protein evaluated from the "vehicle positive control" was calculated for each compound concentration with the following formula: % Change =(pg/ml(compound) - pg/ml (veh pos control))/(pg/ml (veh pos control) - pg/ml(veh neg control))x 100 [formula]
For the soluble protein (TNF-a, p75/80, p55/60, IL-8) studies under stimulated conditions, the mean pg/ml of duplicate wells were determined and the results expressed as percent change from "vehicle positive control". For the soluble protein (p75/80 and p55/60 receptors) studies under non-stimulated conditions, the mean pg/ml of duplicate wells were determined and the results expressed as percent change from "vehicle positive control" utilizing the following formula: % Change =(pg/ml (compound neg control) - pg/ml (veh neg control)/(pg/ml (veh neg control))X 100 [formula]
IC50 values for each compound are calculated by non-linear regression analysis using customized software utilizing the JUMP statistical package.

Sequence of MMP-9 (P14780 94-707): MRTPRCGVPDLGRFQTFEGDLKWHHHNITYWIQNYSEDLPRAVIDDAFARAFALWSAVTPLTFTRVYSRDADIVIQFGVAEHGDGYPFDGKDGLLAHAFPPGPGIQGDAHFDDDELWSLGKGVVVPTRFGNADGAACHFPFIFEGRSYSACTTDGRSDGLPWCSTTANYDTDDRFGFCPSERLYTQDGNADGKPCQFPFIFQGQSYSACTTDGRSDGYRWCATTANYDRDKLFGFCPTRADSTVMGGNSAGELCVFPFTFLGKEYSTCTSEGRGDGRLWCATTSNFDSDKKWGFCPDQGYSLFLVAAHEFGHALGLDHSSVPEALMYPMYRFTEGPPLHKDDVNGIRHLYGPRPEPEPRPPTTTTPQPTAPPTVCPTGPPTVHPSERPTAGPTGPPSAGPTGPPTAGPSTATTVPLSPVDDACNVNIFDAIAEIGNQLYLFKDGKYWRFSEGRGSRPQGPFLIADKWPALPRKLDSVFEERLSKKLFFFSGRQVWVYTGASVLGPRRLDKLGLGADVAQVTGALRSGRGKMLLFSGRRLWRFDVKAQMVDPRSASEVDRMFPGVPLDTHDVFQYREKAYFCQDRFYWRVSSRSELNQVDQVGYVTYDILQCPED

`C#CCOc1ccc(S(=O)(=O)N(C)c2c(C)cc(Br)cc2C(=O)NO)cc1` [Example 53, 5-Bromo-N-hydroxy-3-methyl-2-[methyl-(4-prop-2-ynyloxy-benzenesulfonyl)-amino]-benzamide]: the IC50 (as a rule, the concentration that gives 50% inhibition) against MMP-1 amounted to 113 nM; against MMP-9, 15 nM; on MMP-13, 52 nM; in assay [1] it was 11 nM. Further, the inhibition at 3 µM in the assay on THP-1 cells came to 55%.
As for `CCC#CCOc1ccc(S(=O)(=O)N(C)c2c(C)cc(Br)cc2C(=O)NO)cc1` [Example 55, 5-Bromo-N-hydroxy-3-methyl-2-[methyl-(4-pent-2-ynyloxy-benzenesulfonyl)-amino]-benzamide], the half-inhibitory concentration (IC50) stood at 1230 nM against MMP-1, 800 nM on MMP-9, 289 nM on MMP-13 and 12 nM in assay [1]. For the same molecule, the inhibition at 3 µM in the assay on THP-1 cells was found to be 48%.
With `CCCC#CCOc1ccc(S(=O)(=O)N(C)c2c(C)cc(Br)cc2C(=O)NO)cc1` [Example 57, 5-Bromo-2-[(4-hex-2-ynyloxy-benzenesulfonyl)-methyl-amino]-N-hydroxy-3-methyl-benzamide], the IC50 against MMP-1 was found to be 2360 nM; at MMP-9, 232 nM; against MMP-13, 358 nM; in assay [1], 47 nM. The inhibition at 3 µM in the assay on THP-1 cells was 11%.
Take `COCC#CCOc1ccc(S(=O)(=O)N(C)c2c(C)cc(Br)cc2C(=O)NO)cc1` [Example 58, 5-Bromo-N-hydroxy-2-{[4-(4-methoxy-but-2-ynyloxy)-benzenesulfonyl]-methyl-amino}-3-methyl-benzamide]: the IC50 was found to be 7800 nM against MMP-1, 387 nM against MMP-9, 233 nM against MMP-13 and 11 nM in assay [1]. The inhibition at 3 µM with THP-1 cells amounted to 46%.
On to `COc1cccc(C#CCOc2ccc(S(=O)(=O)N(C)c3c(C)cc(Br)cc3C(=O)NO)cc2)c1` [Example 60, 5-Bromo-N-hydroxy-2-({4-[3-(3-methoxy-phenyl)-prop-2-ynyloxy]-benzenesulfonyl}-methyl-amino)-3-methyl-benzamide], for which the IC50 at MMP-1 was 1030 nM; at MMP-9 it was 671 nM; against MMP-13, 935 nM; in assay [1], 91 nM. The inhibition at 3 µM with THP-1 cells amounted to 1%.
In the case of `COc1ccccc1C#CCOc1ccc(S(=O)(=O)N(C)c2c(C)cc(Br)cc2C(=O)NO)cc1` [Example 61, 5-Bromo-N-hydroxy-2-({4-[3-(2-methoxy-phenyl)-prop-2-ynyloxy]-benzenesulfonyl}-methyl-amino)-3-methyl-benzamide], the inhibition at 10 µM at MMP-1 was 52%. Also, the IC50 against MMP-9 stood at 1510 nM; against MMP-13 it was 1200 nM; in assay [1], 193 nM. The inhibition at 3 µM in the assay with THP-1 cells stood at 0%.
`COc1ccc(C#CCOc2ccc(S(=O)(=O)N(C)c3c(C)cc(Br)cc3C(=O)NO)cc2)cc1` [Example 62, 5-Bromo-N-hydroxy-2-({4-[3-(4-methoxy-phenyl)-prop-2-ynyloxy]-benzenesulfonyl}-methyl-amino)-3-methyl-benzamide]: the IC50 stood at 3600 nM at MMP-1, 901 nM at MMP-9, 588 nM at MMP-13 and 104 nM in assay [1]. In addition, the inhibition at 3 µM with THP-1 cells is 15%.
In the case of `CC#CCOc1ccc(S(=O)(=O)N(C)c2c(C)cc(I)cc2C(=O)NO)cc1` [Example 63, 2-[(4-But-2-ynyloxy-benzenesulfonyl)-methyl-amino]-N-hydroxy-5-iodo-3-methyl-benzamide], the IC50 against MMP-1 stood at 901 nM; against MMP-9, 840 nM; against MMP-13, 275 nM; in assay [1], 16 nM. The inhibition at 3 µM in the assay with THP-1 cells is 87%.
On to `CC#CCOc1ccc(S(=O)(=O)N(Cc2ccccc2)c2c(C)cc(C)cc2C(=O)NO)cc1` [Example 64, 2-[Benzyl-(4-but-2-ynyloxy-benzenesulfonyl)-amino]-N-hydroxy-3,5-dimethyl-benzamide], for which the IC50 against MMP-1 amounted to 1190 nM; on MMP-9, 830 nM; against MMP-13, 312 nM; in assay [1], 105 nM. The inhibition at 3 µM in the assay on THP-1 cells amounted to 48%.
With `Cc1cc(Br)cc(C(=O)NO)c1N(C)S(=O)(=O)c1ccc(OCC#CCN2CCCC2)cc1` [Example 65, 5-Bromo-N-hydroxy-3-methyl-2-{methyl-[4-(4-pyrrolidin-1-yl-but-2-ynyloxy)-benzenesulfonyl]-amino}-benzamide], the IC50 amounted to 3350 nM against MMP-1, 602 nM against MMP-9, 537 nM on MMP-13 and 148 nM in assay [1]. In addition, the inhibition at 3 µM in the assay on THP-1 cells was found to be 12%.
Consider `CCN(CC)CC#CCOc1ccc(S(=O)(=O)N(C)c2c(C)cc(Br)cc2C(=O)NO)cc1` [Example 66, 5-Bromo-2-{[4-(4-diethylamino-but-2-ynyloxy)-benzenesulfonyl]-methyl-amino}-N-hydroxy-3-methyl-benzamide], for which the inhibition at 10 µM at MMP-1 is 21%. Besides, the IC50 stood at 2830 nM against MMP-9, 2380 nM against MMP-13 and 346 nM in assay [1]. The inhibition at 3 µM in the assay on THP-1 cells was determined as 5%.
